Article PMC10745505 (Molecules, 2023)
Where two headings read alike, the source gives them in different places.

Experiments:
[1] = system: Influenza A H1N1; set-up: method as in PMID 24878685; details: Influenza A H1N1, incubation time 48h, cited from earlier work
[2] = system: MDCK cells; set-up: method as in PMID 24878685; details: read-out: IC50 (cytotoxicity against MDCK cells); cited from earlier work
[3] = system: Hep-2 (human larynx carcinoma cell line); details: read-out: half-maximal cell inhibition concentration (IC50); Hep-2 cells, MTT, 72 h, concentration range up to 2 mM
Text: (§1) MDCK (Madin–Darby canine kidney, ATCC CCL34), MRC-5 (lung tissue fibroblasts of a human embryo, collection code 112) and Hep-2 (human larynx carcinoma) cell lines were obtained from the Federal Budgetary Research Institution State Research Center of Virology and Biotechnology “Vector” Rospotrebnadzor cell culture collection, Russian Federation and cultured in Eagle’s Minimum Essential Medium (EMEM) and Dulbecco’s Modified Eagle’s Medium (DMEM) in relation to 1:1 supplemented with a 10% fetal bovine serum under a humidified atmosphere (5% CO2 and 95% air) at 37 °C.
(§2) The effect of compounds 1, 2 and 3 on the cells metabolic activity was determined using the 3-[4,5-dimethylthiazol-2-yl]-2,5-diphenyltetrazolium bromide (MTT) colorimetric assay. The Hep-2 and MRC-5 cells were seeded into 96-well plates at 7 × 10^3 cells/well in a medium-containing compound with concentrations from 2 to 0.01 mM and then incubated for 72 h under 5% CO2 atmosphere. After that, 10 μL of the MTT solution (final concentration of MTT is 0.5 mg·mL^−1) was added to each well, and the plates were incubated for a further 4 h. The formazan produced was then dissolved in DMSO (100 μL/well). The optical density of the solutions was measured with a Mindray Microplate Reader MR-96A (Mindray, Shenzhen, China) at a wavelength of 492 nm. The percentage of cell viability was calculated by the formula: (optical density of the solution in the wells after incubation with the compounds/optical density of the control solution) × 100%. Wells with cells incubated in a pure nutrient medium were used as a control.

[4] = system: MRC-5 (lung tissue fibroblasts of a human embryo); details: read-out: half-maximal cell inhibition concentration (IC50); MRC-5 cells, MTT, 72 h, concentration range up to 2 mM
Text: as §1, §2

[5] = system: Hep-2 cells; experiment: Cellular penetration: Mo content in Hep-2 cells by ICP-AES; assay type: cell-based, human; details: for Cellular penetration: Hep-2 cells, 30 min to 48 h incubation, ICP-AES
Method: (§3) The cells were seeded into 6-well plates at concentration of 5 × 10^5 cells/well. The next day, solutions of 1 and 2 were added to the plates to give final concentrations of 1.0 mM and incubated with cells for 30 min, 2, 6, 24 and 48 h. Then, cells were washed three times with a sterile phosphate buffer. The cells were then removed from the wells with trypsin and centrifuged at 1000 rpm for 5 min. After centrifugation, the number of cells in each sample was calculated. The resulting cell suspension was brought to a volume of 300 µL in a sterile buffer so that each sample contained 0.5 million cells.
(§4) Molybdenum content in cells after incubation times was determined on a high-resolution spectrometer iCAP-6500 (Thermo Scientific, Waltham, MA, USA) with a cyclone-type spray chamber and “SeaSpray” nebulizer. The spectra were obtained by axial plasma viewing. Standard operating conditions of the ICP-AES system were following: power = 1150 W, injector inner diameter = 3 mm, carrier argon flow = 0.7 L min^−1, accessorial argon flow = 0.5 L min^−1, cooling argon flow = 12 L min^−1, number of parallel measurements = 3, and integration time = 5 s.

[6] = system: MRC-5 cells; experiment: Cellular penetration: Mo content in MRC-5 cells by ICP-AES; assay type: cell-based, human; details: for Cellular penetration: MRC-5 cells, 30 min to 48 h incubation, ICP-AES
Method: as §3, §4

[7] = system: influenza A virus, subtype H5N1 (strain A/chicken/Chelyabinsk region/2KL/Russia/2021); assay type: cell-based
[8] = Stability in solution by changes in electronic absorption spectra; assay type: physicochemical; details: for behaviour in acid solution: HCl, pH~2, two days; for stability in distilled water: pH~6, two days, C~1 mM
Method: Since the compounds are soluble in water, an important factor is their stability in aqueous solutions at different pH. Stability was studied by changes in electronic absorption spectra over two days (C~1 mM, diluted 60 times to record spectra) (Figure 6). […] The most significant changes occur in the acid solution (HCl, pH~2). […] Protonation of the pyrazolate ligands, which occurs in acidic solutions, results in the dissociation of binuclear clusters. […] Unlike the pyrazole, the triazole structure has an additional free nitrogen atom that can be protonated. In this case, protonation of the triazolate ligands and formation of a neutral form [Mo12O28(μ-1,2,4-trz)4(μ-1,2,4-trzH)4] with low solubility apparently occurs. […] The complex can be dissolved back into water by adding any alkali solution, which is confirmed by the preservation of the ^1H NMR spectra (Figure S15). Typically, most POMs are not stable in weakly acidic or alkaline aqueous solutions [26, 27], while the compounds studied show the opposite situation, which is associated with both the structure based on binuclear clusters and their linkages through bridging pyrazolate or triazolate ligands.
Elemental analyses were obtained using a vario MICRO cube analyzer and EuroVector EA3000. Energy-dispersive X-ray spectroscopy (EDS) was performed on a Hitachi TM3000 TableTop SEM (Hitachi High-Technologies Corporation, Tokyo, Japan) with Bruker QUANTAX 70 EDS equipment. FTIR spectra were recorded on a Bruker Vertex 80 as KBr disks. The thermal properties (TGA) were studied on a Thermo Microbalance TG 209 F1 Iris (NETZSCH) from 25 to 800 °C at the heating rate of 10 °C·min^−1 in He flow (30 mL·min^−1). Powder X-ray diffraction patterns were collected on a Philips PW 1820/1710 diffractometer (CuKα radiation, graphite monochromator and Si as an external reference). The absorption spectra (UV–vis) were recorded on an Agilent Cary 60 UV/Vis spectrophotometer.

[9] = system: MDCK cells (Madin–Darby canine kidney cells); details: absence of virus, up to 500 μM, 72 h
[10] = system: influenza virus; set-up: method as in PMID 11825310, PMID 9588843; details: usually; cited from earlier work
[11] = Solubility; assay type: physicochemical; details: compared with the other complexes
[12] = Hep-2, 1 mM solution (∽2350 µg Mo/5·10^5 cells), 30 minutes
[13] = MRC-5, 1 mM solution (∽2350 µg Mo/5·10^5 cells), 30 minutes

| Compound | IC50 [3] [µM] | IC50 [4] [µM] | Quantity of Mo accumulated by cells [5, 12] [μg Mo/5·105 cells] | Quantity of Mo accumulated by cells ([5]; Hep-2, 1 mM solution, 2 hours) [μg Mo/5·105 cells] | Quantity of Mo accumulated by cells ([5]; Hep-2, 1 mM solution, 6 hours) [μg Mo/5·105 cells] | Quantity of Mo accumulated by cells ([5]; Hep-2, 1 mM solution, 24 hours) [μg Mo/5·105 cells] | Quantity of Mo accumulated by cells ([5]; Hep-2, 1 mM solution, 48 hours) [μg Mo/5·105 cells] | Cellular penetration [5] | Quantity of Mo accumulated by cells [6, 13] [μg Mo/5·105 cells] | Quantity of Mo accumulated by cells ([6]; MRC-5, 1 mM solution, 2 hours) [μg Mo/5·105 cells] | Quantity of Mo accumulated by cells ([6]; MRC-5, 1 mM solution, 6 hours) [μg Mo/5·105 cells] | Quantity of Mo accumulated by cells ([6]; MRC-5, 1 mM solution, 24 hours) [μg Mo/5·105 cells] | Quantity of Mo accumulated by cells ([6]; MRC-5, 1 mM solution, 48 hours) [μg Mo/5·105 cells] | Cellular penetration [6] | behaviour in acid solution [8] | stability in distilled water [8] | cytopathic effect on MDCK cells [9] | EC50 [10] [µM] | also measured |
| --- | --- | --- | --- | --- | --- | --- | --- | --- | --- | --- | --- | --- | --- | --- | --- | --- | --- | --- | --- |
| Cs2K4Na[SiW9Nb3O40] [POM93] |  |  |  |  |  |  |  |  |  |  |  |  |  |  |  |  |  |  | EC50 ([1]; converted from μg/mL, read-out: EC50): ~2.4 µM; EC50 [1]: 7.4 ± 1.1 µg/mL; IC50 [2]: 140 µM |
| (NH4)4[Mo12O28(μ-1,2,4-trz)8]·1.5(1,2,4-trzH)·3H2O [Compound 2] | > 2000 | 1810 ± 40 | 0.18 | 0.32 | 0.33 | 0.43 | 0.42 | absence of cell penetration | 0.23 | 0.11 | 0.12 | 0.34 | 0.34 | absence of cell penetration | immediately precipitates | high stability | do not show any significant cytopathic effect |  | antiviral effect ([7]; MDCK cells in presence of H5N1 virus, concentration range tested up to 500 μM): no effect or insignificant effect; stability in alkaline solution (spectral change) ([8]; NaOH, pH~12, two days): slight change in the absorption intensity |
| CC(=O)N[C@H]1[C@H]([C@H](O)[C@H](O)CO)OC(C(=O)O)=C[C@@H]1N=C(N)N [zanamivir] |  |  |  |  |  |  |  |  |  |  |  |  |  |  |  |  |  | < 10 |  |
| (NH4)4[Mo12O28(μ-pz)8]·1.5pzH·4.5H2O [Compound 1] | > 2000 | > 2000 | 0.25 | 0.46 | 0.47 | 0.75 | 0.75 | absence of cell penetration | 0.22 | 0.25 | 0.24 | 0.77 | 0.83 | absence of cell penetration | complete destruction | high stability | do not show any significant cytopathic effect |  | concentrations at which antiviral effect was found ([7]; MDCK cells in presence of H5N1 virus, 72 h, MTT): above 62.5 μM; EC50 ([7]; presence of H5N1 virus, 72 h, nonlinear regression, read-out: EC50 (50% virus-inhibitory effective concentration as indirectly measured by MDCK cell viability)): 82.4 ± 11.4 µM; decrease in the absorption intensity ([8]; NaOH, pH~12, two days): ~ 10% |
| CCOC(=O)C1=C[C@@H](OC(CC)CC)[C@H](NC(C)=O)[C@@H](N)C1 [oseltamivir] |  |  |  |  |  |  |  |  |  |  |  |  |  |  |  |  |  | < 10 |  |
| (NH4)4[Mo12O28(μ-1,2,3-trz)8]·4H2O [Compound 3] |  |  |  |  |  |  |  |  |  |  |  |  |  |  |  |  |  |  | solubility in water [11]: significantly lower solubility in water |
